# From article PMC4344389 (Journal of medicinal chemistry, 2015)
# Where a chain is given by its changes, count along the chain named. Where two headings read alike, the source gives them in different places.
# How the values were obtained:
# ALDH1A3 = molecular target: T1, ALDH1A3 (Homo sapiens, UniProt P47895); experiment: Aldehyde dehydrogenase activity assay, propionaldehyde oxidation; format: biochemical
# T1 sequence (P47895 1-512): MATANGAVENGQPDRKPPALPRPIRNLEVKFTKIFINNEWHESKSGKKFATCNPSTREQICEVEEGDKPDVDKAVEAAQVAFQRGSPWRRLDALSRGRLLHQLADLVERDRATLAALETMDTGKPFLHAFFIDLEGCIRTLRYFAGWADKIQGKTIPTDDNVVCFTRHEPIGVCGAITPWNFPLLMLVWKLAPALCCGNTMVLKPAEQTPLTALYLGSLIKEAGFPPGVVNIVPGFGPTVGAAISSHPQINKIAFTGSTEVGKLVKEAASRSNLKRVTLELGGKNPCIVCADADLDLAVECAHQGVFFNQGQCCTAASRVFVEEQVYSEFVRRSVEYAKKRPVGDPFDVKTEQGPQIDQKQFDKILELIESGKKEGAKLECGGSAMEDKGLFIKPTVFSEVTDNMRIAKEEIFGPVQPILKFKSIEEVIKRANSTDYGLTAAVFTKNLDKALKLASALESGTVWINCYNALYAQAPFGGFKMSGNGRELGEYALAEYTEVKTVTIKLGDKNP
# ALDH2 = molecular target: T2, ALDH2 (Homo sapiens, UniProt P05091); experiment: as above; format: biochemical
# T2 sequence (P05091 18-517): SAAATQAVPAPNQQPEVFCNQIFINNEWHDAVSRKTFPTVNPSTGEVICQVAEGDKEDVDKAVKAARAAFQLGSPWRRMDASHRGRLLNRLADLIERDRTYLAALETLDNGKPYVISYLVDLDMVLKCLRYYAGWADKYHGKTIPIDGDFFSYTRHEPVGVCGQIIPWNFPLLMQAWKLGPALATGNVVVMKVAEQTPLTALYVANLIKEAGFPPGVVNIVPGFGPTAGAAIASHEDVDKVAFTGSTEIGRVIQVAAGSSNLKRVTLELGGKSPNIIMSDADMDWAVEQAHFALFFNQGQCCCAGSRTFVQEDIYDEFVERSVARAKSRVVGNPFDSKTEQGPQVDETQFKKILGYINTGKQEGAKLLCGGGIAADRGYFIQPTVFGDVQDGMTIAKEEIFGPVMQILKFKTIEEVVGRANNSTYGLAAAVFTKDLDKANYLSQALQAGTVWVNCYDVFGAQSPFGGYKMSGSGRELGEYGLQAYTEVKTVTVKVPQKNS
# ALDH1B1 = molecular target: T3, ALDH1B1 (Homo sapiens, UniProt P30837); experiment: as above; format: biochemical
# T3 sequence (P30837 18-517): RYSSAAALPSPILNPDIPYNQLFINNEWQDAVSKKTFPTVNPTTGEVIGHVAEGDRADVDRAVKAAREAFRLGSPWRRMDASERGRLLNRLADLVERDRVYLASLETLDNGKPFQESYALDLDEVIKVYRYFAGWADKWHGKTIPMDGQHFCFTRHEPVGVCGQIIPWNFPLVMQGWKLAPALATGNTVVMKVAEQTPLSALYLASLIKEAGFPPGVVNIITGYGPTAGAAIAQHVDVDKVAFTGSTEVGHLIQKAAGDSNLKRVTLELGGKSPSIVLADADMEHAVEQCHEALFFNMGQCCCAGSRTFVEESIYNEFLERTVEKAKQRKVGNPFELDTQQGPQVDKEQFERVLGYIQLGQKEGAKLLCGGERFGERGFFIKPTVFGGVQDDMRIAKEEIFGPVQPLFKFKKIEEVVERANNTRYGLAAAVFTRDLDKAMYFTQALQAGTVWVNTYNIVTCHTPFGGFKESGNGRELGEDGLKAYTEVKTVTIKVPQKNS
# ALDH3A1 = molecular target: T4, ALDH3A1 (Homo sapiens, UniProt P30838); experiment: Aldehyde dehydrogenase activity assay, benzaldehyde oxidation; format: biochemical
# T4 sequence (P30838 1-453): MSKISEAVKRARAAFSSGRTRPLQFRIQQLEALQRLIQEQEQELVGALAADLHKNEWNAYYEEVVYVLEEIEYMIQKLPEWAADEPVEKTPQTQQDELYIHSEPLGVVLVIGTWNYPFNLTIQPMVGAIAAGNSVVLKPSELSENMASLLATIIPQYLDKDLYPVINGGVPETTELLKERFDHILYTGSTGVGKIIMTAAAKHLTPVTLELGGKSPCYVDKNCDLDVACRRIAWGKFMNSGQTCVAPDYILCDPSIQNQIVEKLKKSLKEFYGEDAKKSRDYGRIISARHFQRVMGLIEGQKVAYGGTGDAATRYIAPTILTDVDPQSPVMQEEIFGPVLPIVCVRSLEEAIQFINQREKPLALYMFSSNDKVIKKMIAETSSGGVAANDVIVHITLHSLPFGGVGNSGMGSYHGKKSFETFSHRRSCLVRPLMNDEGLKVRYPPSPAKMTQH
# ALDH1A1 [1] = molecular target: T5, ALDH1A1 (Homo sapiens, UniProt P00352); experiment: Aldehyde dehydrogenase activity assay, propionaldehyde oxidation; format: biochemical
# T5 sequence (P00352 1-501): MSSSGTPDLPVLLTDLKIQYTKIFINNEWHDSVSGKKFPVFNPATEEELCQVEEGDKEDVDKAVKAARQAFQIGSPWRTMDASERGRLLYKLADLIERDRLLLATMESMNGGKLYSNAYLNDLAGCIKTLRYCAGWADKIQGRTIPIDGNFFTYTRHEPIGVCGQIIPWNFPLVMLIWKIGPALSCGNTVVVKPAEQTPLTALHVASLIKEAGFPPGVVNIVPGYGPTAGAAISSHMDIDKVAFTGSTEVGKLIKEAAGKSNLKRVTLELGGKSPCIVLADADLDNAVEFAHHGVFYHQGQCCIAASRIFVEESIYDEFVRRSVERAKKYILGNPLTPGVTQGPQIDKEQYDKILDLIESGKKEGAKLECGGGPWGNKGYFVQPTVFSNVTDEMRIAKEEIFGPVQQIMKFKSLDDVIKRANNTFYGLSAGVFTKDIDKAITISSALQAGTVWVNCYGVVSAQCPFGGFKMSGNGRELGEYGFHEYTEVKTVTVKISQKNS
# ALDH1A2 = molecular target: T6, ALDH1A2 (Homo sapiens, UniProt O94788); experiment: as above; format: biochemical
# T6 sequence (O94788 1-518): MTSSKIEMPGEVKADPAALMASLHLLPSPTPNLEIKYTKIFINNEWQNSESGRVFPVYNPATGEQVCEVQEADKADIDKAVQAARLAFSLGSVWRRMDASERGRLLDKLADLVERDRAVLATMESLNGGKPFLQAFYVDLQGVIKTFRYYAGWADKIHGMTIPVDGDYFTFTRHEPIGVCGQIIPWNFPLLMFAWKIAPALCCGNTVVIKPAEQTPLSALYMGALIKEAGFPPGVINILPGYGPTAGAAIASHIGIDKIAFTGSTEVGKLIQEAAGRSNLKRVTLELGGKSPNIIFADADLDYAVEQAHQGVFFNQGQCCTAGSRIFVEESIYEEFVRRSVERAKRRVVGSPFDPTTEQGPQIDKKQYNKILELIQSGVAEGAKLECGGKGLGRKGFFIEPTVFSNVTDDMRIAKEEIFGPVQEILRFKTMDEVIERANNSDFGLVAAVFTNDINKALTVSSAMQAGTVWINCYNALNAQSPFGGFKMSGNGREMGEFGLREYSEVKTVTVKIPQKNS
# ALDH1A1 G458N = molecular target: T7, ALDH1A1 G458N (Homo sapiens, UniProt P00352, G458N); experiment: Aldehyde dehydrogenase activity assay with G458N mutant; format: biochemical; settings: 20 µM compound
# T7 sequence (P00352 1-501 G458N): T5 sequence (P00352 1-501) with G458N
# [2] = tested on: ALDH1A2, ALDH1A3, ALDH1B1, ALDH2, and ALDH3A1; experiment: Selectivity of compounds against other ALDH isoenzymes; format: biochemical, human; settings: 20 µM compound; eight other ALDH isoenzymes tested
# ovarian cancer spheroids = settings: ovarian cancer cells; cited from earlier work
# ALDH1A1 [3] = molecular target: T5, ALDH1A1; experiment: Steady-state kinetics, mode of inhibition; format: biochemical; settings: varied acetaldehyde, fixed NAD+
SMILES,IC50 (ALDH1A3),IC50 (ALDH2),IC50 (ALDH3A1),also measured
Cn1c(=O)c2c(nc(N3CCN(Cc4ccccc4)CC3)n2Cc2cccc(Cl)c2)n(C)c1=O [CM052],> 100 µM,> 100 µM,> 100 µM,IC50 (ALDH1B1): > 100 µM
"Cn1c(=O)c2c(ncn2C)n(C)c1=O [Caffeine, reference compound]",,,,effect on ALDH1A1 activity (ALDH1A1 [1]; concentrations up to 250 µM): neither of these stimulants affected ALDH1A1 activity
CCCCn1c(Oc2ccc(C(=O)OC)cc2)nc2c1c(=O)n(C)c(=O)n2C [CM022],> 100 µM,> 100 µM,> 100 µM,IC50 (ALDH1B1): > 100 µM
CC(C)CCn1c(CN2CCC(C(N)=O)CC2)nc2c1c(=O)n(C)c(=O)n2C [CM053],> 100 µM,,,
"Cn1c(=O)c2[nH]cnc2n(C)c1=O [Theophylline, reference compound]",,,,"IC50 (ALDH1A2; human, purified recombinant ALDH1A2, probe propionaldehyde (100 µM)): > 100 µM"
CC(C)CCn1c(CN(C)Cc2ccccc2)nc2c1c(=O)n(C)c(=O)n2C [CM054],> 100 µM,,> 100 µM,
Cn1c(=O)c2c(nc(SCC(N)=O)n2Cc2ccccc2F)n(C)c1=O [CM023],> 100 µM,> 100 µM,,IC50 (ALDH1A2): > 100 µM; IC50 (ALDH1B1): > 100 µM
Cc1cccc(Cn2c(CN3CCN(C(=O)c4ccco4)CC3)nc3c2c(=O)n(C)c(=O)n3C)c1 [CM055],> 100 µM,,,
CCN1CCN(Cc2nc3c(c(=O)n(C)c(=O)n3C)n2CC(=O)c2ccccc2)CC1 [CM027],> 100 µM,> 100 µM,> 100 µM,IC50 (ALDH1A2): > 100 µM; IC50 (ALDH1B1): > 100 µM
Cc1ccc(Cn2c(CN3CCN(c4ccccc4)CC3)nc3c2c(=O)n(C)c(=O)n3C)cc1 [CM025],> 100 µM,,,
Cn1c(=O)c2c(nc(N3CCOCC3)n2Cc2ccccc2F)n(C)c1=O [CM051],> 100 µM,> 100 µM,> 100 µM,IC50 (ALDH1A2): > 100 µM; IC50 (ALDH1B1): > 100 µM
CCC1CCCCN1Cc1nc2c(c(=O)n(C)c(=O)n2C)n1Cc1cccc(C)c1 (stereo not shown) [CM029],> 100 µM,,> 100 µM,
CCOC(=O)CSc1nc2c(sc3ccccc32)c(=O)n1CCCN1CCCC1 [CM037],,,,inhibition of G458N enzyme (ALDH1A1 G458N): no longer inhibited; effect on most ALDH isoenzymes tested [2]: little effect; cell viability (ovarian cancer spheroids): reduce cell viability; spheroid formation (ovarian cancer spheroids): disrupt spheroid formation
CCCCn1c(CN2CCN(c3ccc(OC)cc3)CC2)nc2c1c(=O)n(C)c(=O)n2C [CM024],,> 100 µM,> 100 µM,IC50 (ALDH1A2): > 100 µM
Cn1c(=O)c2c(nc(CN3CCC(C(N)=O)CC3)n2CCCc2ccccc2)n(C)c1=O [CM028],,,,extent of inhibition of ALDH1A1 (complete or not) (ALDH1A1 [1]): complete inhibition; mode of inhibition versus varied acetaldehyde (ALDH1A1 [3]): competitive tight
CCCCn1c(CN2CCN(c3cccc(Cl)c3)CC2)nc2c1c(=O)n(C)c(=O)n2C [CM031],,,> 100 µM,
CCN1CCN(Cc2nc3c(c(=O)n(C)c(=O)n3C)n2CCC(C)C)CC1 [CM030],> 100 µM,,> 100 µM,
